We go through 27 compounds from article PMC10180155, “Thieno-Thiazolostilbenes, Thienobenzo-Thiazoles, and Naphtho-Oxazoles: Computational Study and Cholinesterase Inhibitory Activity” (Molecules, 2023).

Data set [1] concerns the target T1, BChE (EC 3.1.1.8, equine serum) (Equus caballus, UniProt P81908).
T1 construct: BChE (EC 3.1.1.8, equine serum); purchased Sigma-Aldrich; host or cells: equine serum
Description: biochemical. Type of data set: biochemical. Conditions: for Inhibition (%) BChE: concentration for the maximal effect measured. How it is done:
(§1) AChE and BChE inhibition were determined using a modified spectrophotometric Ellman’s method. Acetylthiocholine iodide (ATChI), S-butyrylthiocholine iodide (BTChI), AChE (EC 3.1.1.7, Electrophorus electricus, Type: V-S), BChE (EC 3.1.1.8, equine serum), and Trisma base were purchased from Sigma-Aldrich (St. Louis, MO, USA), while Ellman’s reagent 5,50-dithiobis-(2-nitrobenzoic acid) (DTNB) was purchased from Zwijndrecht (Antwerpen, Belgium). The reaction mixture contained 180 µL Tris-HCl buffer (50 mM, pH 8.0) or phosphate buffer, 10 µL of the enzyme (final concentration 0.03 U/mL), 10 µL of the tested solution, and 10 μL of DTNB (final concentration 0.3 mM). The reaction started with adding 10 μL of ATChI/BTChI (final concentration of 0.5 mM). The developing yellow color was measured at 405 nm over 6 min at room temperature using a 96-well microplate reader (IRE 96, SFRI Medical Diagnostics, Bordeaux, France). The experiment was run in triplicate. The percentage of enzyme inhibition was calculated from measured data according to the equation: Inhibition (%) = [(Ac − AT)/A.C.]∙100, where A.C. is the enzyme activity without the test sample, and AT is the enzyme activity with the test sample, calculated as mean values ± standard deviation. In the control measurement, the tested compound was replaced by a buffer solution. Non-enzymatic hydrolysis was measured as blank for each measurement. The IC50 value was calculated by a nonlinear fit of compound concentration (log) values vs. response.

Data set [2] is described as follows: Solubility as observed in the cholinesterase measurements. The note with it: did not allow measurements at higher concentrations. Type of data set: physicochemical. An excerpt:
Tested compounds were active only toward BChE, and the results are presented in Table 2 and Figure 8 and Figure 9. Among stilbene derivatives, the best result is achieved by the derivative with a phenolic ring trans-8a and the thiophene derivative trans-1a (Table 2, Figure 9). […] Replacement of phenol from trans-8a with thiophene in trans-1a reduces the IC50 value by seven times. Replacing the methyl group from trans-1a with an isopropyl group in trans-2a (along with the inversion of the sulfur and nitrogen position) also reduces the activity. Furthermore, a change in geometry from trans-1a to cis-1a also diminished inhibitory activity, as was observed earlier.

Data set [3] concerns the target T2, AChE (EC 3.1.1.7, Electrophorus electricus, Type: V-S) (Electrophorus electricus, UniProt O42275).
T2 construct: purchased Sigma-Aldrich Type: V-S
In words: AChE inhibition, modified spectrophotometric Ellman's method. Type of data set: biochemical. How it is done:
as §1, with “The experiment was run in triplicate.” left out, “In the control measurement, the tested compound was replaced by a buffer solution.” left out
Background: Ellman's reagent forms a yellow product with free thiols.

T1 sequence (P81908 whole entry): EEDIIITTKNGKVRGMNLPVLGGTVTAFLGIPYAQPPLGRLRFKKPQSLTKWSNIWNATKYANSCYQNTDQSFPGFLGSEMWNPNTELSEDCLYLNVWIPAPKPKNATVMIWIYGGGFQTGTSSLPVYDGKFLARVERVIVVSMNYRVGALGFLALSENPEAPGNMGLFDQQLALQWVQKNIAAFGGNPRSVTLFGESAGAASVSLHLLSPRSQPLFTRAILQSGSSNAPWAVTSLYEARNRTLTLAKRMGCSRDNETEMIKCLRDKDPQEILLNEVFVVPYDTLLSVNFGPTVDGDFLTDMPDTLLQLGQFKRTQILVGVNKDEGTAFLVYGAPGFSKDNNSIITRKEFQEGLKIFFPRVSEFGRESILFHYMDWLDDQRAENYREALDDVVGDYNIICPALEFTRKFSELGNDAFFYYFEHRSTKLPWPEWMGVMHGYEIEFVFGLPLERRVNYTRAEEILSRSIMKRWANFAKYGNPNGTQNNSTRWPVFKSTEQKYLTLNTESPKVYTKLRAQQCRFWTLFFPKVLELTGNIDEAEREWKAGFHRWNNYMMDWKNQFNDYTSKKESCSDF
T2 sequence (O42275 24-633): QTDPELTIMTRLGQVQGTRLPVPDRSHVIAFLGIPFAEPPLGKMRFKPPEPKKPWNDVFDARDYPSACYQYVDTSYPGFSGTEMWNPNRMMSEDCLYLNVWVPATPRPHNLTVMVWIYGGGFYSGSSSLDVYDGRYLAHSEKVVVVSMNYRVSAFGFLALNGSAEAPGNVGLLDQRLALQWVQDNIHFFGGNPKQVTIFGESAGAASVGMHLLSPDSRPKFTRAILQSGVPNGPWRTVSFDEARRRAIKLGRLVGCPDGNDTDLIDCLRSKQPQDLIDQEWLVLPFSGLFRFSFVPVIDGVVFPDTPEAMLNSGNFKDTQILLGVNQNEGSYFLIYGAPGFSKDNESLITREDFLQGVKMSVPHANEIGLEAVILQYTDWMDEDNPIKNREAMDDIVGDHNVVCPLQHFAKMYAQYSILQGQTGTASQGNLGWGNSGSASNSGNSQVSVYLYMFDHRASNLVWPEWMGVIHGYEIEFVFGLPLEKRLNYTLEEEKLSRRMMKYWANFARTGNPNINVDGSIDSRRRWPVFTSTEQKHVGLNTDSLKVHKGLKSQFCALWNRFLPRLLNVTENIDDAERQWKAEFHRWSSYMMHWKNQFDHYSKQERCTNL

Turning to `Clc1ncc(/C=C/c2cccs2)s1` [trans-3a, (E)-2-chloro-5-(2-(thiophen-2-yl)vinyl)thiazole], the “inhibitory activity toward BChE (in words)” value in data set [1] is “ineffective inhibitors”. Further, in data set [1] (read-out: Inhibition (%) BChE), the inhibition (usually the share of the control response that was lost under treatment) at 250 µM worked out at 10%.
Turning to `Cc1nc2c(ccc3sccc32)s1` [Compound 1, 2-methylthieno[2′,3′:5,6]benzo[1,2-d]thiazole], the IC50 (commonly the concentration at which inhibition is half-maximal) in data set [1] came to 107 µM. In addition, in data set [1] (read-out: Inhibition (%) BChE), the inhibition at 500 µM is 79.1%.
On to `Cc1nc2ccc3ccc([N+](=O)[O-])cc3c2o1` [Compound 17], for which the inhibition at 159.5 µM in data set [1] (read-out: Inhibition (%) BChE) is 16.8%.
Regarding `COc1ccc2ccc3ncoc3c2c1` [Compound 18], the inhibition at 273.6 µM in data set [1] (read-out: Inhibition (%) BChE) was 38%.
For “(Z)-2-isopropyl-5-(2-(thiophen-2-yl)vinyl)thiazole [cis-2a]”, the “Inhibition (%) BChE” value in data set [1] (250 μM) is given as 45.5 (250) %.
`Clc1nc2c(ccc3sccc32)s1` [Compound 3, 2-chlorothieno[2′,3′:5,6]benzo[1,2-d]thiazole] registered an IC50 in data set [1] of 51.1 µM. In data set [1] (read-out: Inhibition (%) BChE), the inhibition at 250 µM was found to be 75.4%.
Take `Fc1ccc2ccc3ocnc3c2c1` [Compound 22]: in data set [1], half-maximal inhibition (IC50) required 128 µM. The inhibition at 315.8 µM in data set [1] (read-out: Inhibition (%) BChE) came out at 69.9%.
Turning to `N#Cc1cccc2c1ccc1ncoc12` [Compound 12], the inhibition at 176 µM in data set [1] (read-out: Inhibition (%) BChE) stood at 40.9%.
Consider `c1ccc2c(c1)ccc1ncoc12` [Compound 11], for which the inhibition at 188 µM in data set [1] (read-out: Inhibition (%) BChE) worked out at 0.9%.
In turn, `FC(F)(F)c1nc2c(ccc3sccc32)s1` [Compound 4, 2-(trifluoromethyl)thieno[2′,3′:5,6]benzo[1,2-d]thiazole] yielded an IC50 in data set [1] of 41.9 µM. Also, the inhibition at 200 µM in data set [1] (read-out: Inhibition (%) BChE) stood at 70.8%.
Take `CC(C)c1nc2ccc3sccc3c2s1` [Compound 2, 2-isopropylthieno[3′,2′:3,4]benzo[1,2-d]thiazole]: the inhibition at 200 µM in data set [1] (read-out: Inhibition (%) BChE) came out at 46.8%.
For `Clc1nc(N2CCCC2)sc1/C=C/c1cccs1` [trans-10a, (E)-4-chloro-2-(pyrrolidin-1-yl)-5-(2-(thiophen-2-yl)vinyl)thiazole], in data set [1] (read-out: Inhibition (%) BChE), the inhibition at 100 µM came to 25.3%. The “solubility (in words)” value in data set [2] was “limited solubility”.
With `CC(=O)Nc1nc2c(ccc3sccc32)s1` [Compound 5, N-(thieno[2′,3′:5,6]benzo[1,2-d]thiazol-2-yl)acetamide], in data set [1] (read-out: Inhibition (%) BChE), the inhibition at 250 µM turned out to be 24.9%.
Consider `CCC(C)Nc1ncc(/C=C/c2cccs2)s1` (stereo not drawn) [trans-9a, (E)-N-(sec-butyl)-5-(2-(thiophen-2-yl)vinyl)thiazol-2-amine], for which the inhibition at 100 µM in data set [1] (read-out: Inhibition (%) BChE) came to 47.7%. In data set [2], the “solubility (in words)” value is “limited solubility”.
The compound “(E)-2-methyl-5-(2-(thiophen-2-yl)vinyl)thiazole [trans-1a]” gave an IC50 in data set [1] of 181 µM. Further, the “Inhibition (%) BChE” value in data set [1] (500 μM) is 64.0 (500) %.
Turning to `Cc1cccc2c1ccc1ocnc12` [Compound 23], the inhibition at 297.5 µM in data set [1] (read-out: Inhibition (%) BChE) was 20.6%.
The compound `Cc1ccc2ccc3ncoc3c2c1` [Compound 14] gave an IC50 in data set [1] of 155 µM. Also, in data set [1] (read-out: Inhibition (%) BChE), the inhibition at 173.6 µM was determined as 63.3%.
In the case of `CC(=O)Nc1ncc(C=Cc2cccs2)s1` (mixture of isomers) [Compound 5a, N-(5-(2-(thiophen-2-yl)vinyl)thiazol-2-yl)acetamide], in data set [1], the “inhibitory activity toward BChE (in words)” value is listed as “ineffective inhibitors”. In data set [1] (read-out: Inhibition (%) BChE), the inhibition at 250 µM came out at 30.6%.
With `Cc1ccc2ccc3nc(C)oc3c2c1` [Compound 15], the midpoint of inhibition in data set [1], the IC50, lay at 44.4 µM. The inhibition at 368.6 µM in data set [1] (read-out: Inhibition (%) BChE) turned out to be 98.3%.
Turning to “(E)-2-isopropyl-5-(2-(thiophen-2-yl)vinyl)thiazole [trans-2a]”, the “Inhibition (%) BChE” value in data set [1] (250 μM) was 45.8 (250) %.
For the compound `Cc1cccc2c1ccc1ncoc12` [Compound 13], in data set [1], the IC50 came out at 351 µM. Besides, in data set [1] (read-out: Inhibition (%) BChE), the inhibition at 396.8 µM was found to be 57.8%.
With `O=[N+]([O-])c1ccc2ccc3ncoc3c2c1` [Compound 16], the figures for the IC50 in data set [1] and in data set [3] were 137 µM and 131 µM, respectively. The inhibition at 201.7 µM came to 64.9% in data set [1] (read-out: Inhibition (%) BChE) and 63.8% in data set [3] (read-out: % of inhibition AChE).
The compound “(E)-2-(2-(2-methylthiazol-5-yl)vinyl)phenol [trans-8a]” showed an IC50 in data set [1] of 25.2 µM. In addition, the “Inhibition (%) BChE” value in data set [1] (250 μM) is recorded as 80.5 (250) %.
`Clc1ccc2ccc3ocnc3c2c1` [Compound 21]: the inhibition at 312.3 µM in data set [1] (read-out: Inhibition (%) BChE) was 32.6%.
`COc1ccc2ccc3nc(C)oc3c2c1` [Compound 19] came in with an IC50 in data set [1] of 170 µM. For the same compound, the inhibition at 405.2 µM in data set [1] (read-out: Inhibition (%) BChE) stood at 81.9%.
With “(Z)-2-methyl-5-(2-(thiophen-2-yl)vinyl)thiazole [cis-1a]”, the “inhibitory activity toward BChE (in words)” value in data set [1] is listed as “ineffective inhibitors”. In addition, in data set [1] (500 μM), the “Inhibition (%) BChE” value is listed as 36.4 (500) %.
With `CN(C)c1ccc2ccc3ocnc3c2c1` [Compound 20], in data set [1], the half-inhibitory concentration (IC50) came out at 184 µM. For the same compound, in data set [1] (read-out: Inhibition (%) BChE), the inhibition at 364.2 µM was found to be 82.2%.
